Where a SMILES comes first, the peptide text is derived from it.
Experiments:
αSO = target: T1, αSO (Homo sapiens, UniProt P37840); assay: Microfluidic diffusional sizing binding affinity (Fluidity One-W), αSO; conditions: 60 μM labeled p216, 0–84 μM αSO, MilliQ water, 15 min in the dark; 1:1 binding fit of Rh; read-out: Dissociation binding constant (Kd) for αSO
T1 construct: made in house; host or cells: Escherichia coli BL21 (DE3); oligomers formed by shaking the monomer and isolated by SEC (Superose 6)
Procedure: (§1) To determine an actual binding affinity of p216 to αSOs and α-syn, the hydrodynamic radius (Rh) of labeled p216 bound to unlabeled αSOs–α-syn was determined by microfluidic diffusional sizing ([72]). […] Rather, a direct and easily interpretable parameter is provided in the form of the Rh. […] For both species, binding of peptide led to a significant increase in Rh, confirming peptide immobilization in complex with these states. The measured values of ca. 5 and 11 nm for α-syn and αSO, respectively, agree nicely with the known Rh of α-syn ([73]) (4 nm) and αSO (10 nm) ([74]).
(§2) Peptides were labeled with fluidiphore rapid amine 503 (Fluidic Analytics Limited), an amine-reactive fluorescent label whose absorbance shifts from 612 nm (free) to 503 nm when conjugated. About 1 mg dry fluidiphore dye was dissolved in 100 μl acetonitrile and stored at −20 °C. The peptide stock solutions were diluted into labeling buffer (0.1 M NaHCO3, pH 8.3) to a final concentration of 1 mg/ml (100 μl) and mixed with 3 μl of dye solution (final dye concentration of […]) and incubated for 30 min at RT. […]
(§3) Fluidity One-W (Fluidic Analytics Limited) ([101]) was used to measure the binding affinity and Rh of peptides bound to α-syn monomers and oligomers. We determined the lowest concentration of labeled peptides that could be detected by the instrument to be 60 μM. […]

αSOs = target: T2, αSOs (Homo sapiens, UniProt P37840); assay: Calcein release assay, αSOs together with peptides; assay type: biochemical
T2 construct: made in house; host or cells: Escherichia coli BL21 (DE3); oligomers formed by shaking the monomer and isolated by SEC (Superose 6)
Procedure: αSOs show cytotoxic properties, which have been attributed to their membrane-disrupting ability ([69]). To examine the effect of peptides on membrane permeabilization by αSOs, we used a simple calcein release assay. αSOs, peptides, and aSO–peptide mixtures at 10^−6 to 10^−1 mg/ml peptide were added to calcein-loaded DOPG vesicle, and the extent of calcein release was monitored for 30 min by the increase in fluorescence as calcein leaks out upon membrane permeabilization, leading to dilution and the loss of self-quenching. The time-dependent calcein release data from DOPG vesicles ([70], [71]) in the presence of peptides, αSOs, and αSO–peptides are shown in Figs. S9 and S10. In order to allow easy comparison of all peptides, the calcein release versus concentration (peptides and αSOs) were plotted at the plateau point of release (Fig. 5, A–C). […] Figure 5D compares calcein release percentages of data represented in Figure 5, A and B at peptide concentrations between 0.001 and 0.1 mg/ml, where we see the largest extent of calcein release in general.
Calcein-filled vesicles of DOPG were prepared as described before ([38]). Briefly, DOPG was dissolved in PBS to […], in the presence of calcein at self-quenching concentrations (70 mM) and subjected to 10 freeze–thaw cycles between liquid nitrogen and a 50 °C water bath. After 21 times extrusion through a 100 nm filter, free calcein was separated from vesicles with a PD-10 desalting column (GE Healthcare). Vesicles were stored at 4 °C and used for calcein release assays within 24 h.
Calcein release was measured by mixing peptides and/or αSOs at a final concentration of 10^−6 to 10^−1 mg/ml and 5.2 μg/ml, respectively, in 148 μl with 2 μl of calcein vesicles, and were then loaded onto a 96-well plate (Nunc, Thermo Fischer Scientific) in triplicate. The plate was sealed with Crystal clear sealing tape (Hampton Research), and fluorescence was measured (excitation: 485 nm and emission: 520 nm) for 1 h at 37 °C every 2 min with a 2 s autoshake before each reading on a fluorescence plate reader (Tecan). Finally, 2 μl Triton X-100 (0.2% [v/v]) was added to lyse vesicles, and the maximal fluorescence signal was measured for 20 min under the same reading condition. Background fluorescence was subtracted, and the average signal of calcein release before addition of Triton X-100 (F), after treatment with Triton X-100 (Ft) and for the buffer control (F0) were determined, and calcein release percentage was calculated as follow (Equation 1):(1) CalceinRelease%(CR%)=(F−F0)/(Ft−F0)

SH-SY5Y cells [1] = conditions: 10 μM αSOs (0.14 μg/ml) with 35 μg/ml peptide, 24 h, MTT
Procedure: (§4) The effect of the peptides on αSOs toxicity in SH-SY5Y cells using 3-(4, 5-dimethylthiazol-2-yl)-2,5-diphenyltetrazolium bromide (MTT) cell viability assay was also tested to complement our calcein data.
(§5) We used the MTT assay to measure cell viability after 24 h treatment with αSOs in the presence of peptides. SH-SY5Y cells were seeded in 96-well plates at a density of 5 × 10^4 cell/ml in Dulbecco's modified Eagle's medium supplemented with 10% FBS, 100 unit/ml penicillin, and […]. The cells were incubated in a humidified atmosphere incubator with 5% CO2 and 95% humidity at 37 °C for 24 h. The culture medium was then replaced with fresh medium containing 10 μM αSOs with peptides and incubated for another 24 h. Then the cell medium was replaced with a fresh medium containing 20% MTT (5 mg/ml), and the cells were incubated for an additional 4 h at 37 °C. Then 100 μl of dimethyl sulfoxide was added to dissolve formazan crystals by incubating for 30 min on a shaker at RT. Consequently, absorbance was measured by using a plate reader at 570 nm.

SH-SY5Y cells [2] = assay: MTT cell viability assay, substance alone
Procedure: as §4, §5

α-syn [3] = target: T3, α-syn (Homo sapiens, UniProt P37840); assay: Microfluidic diffusional sizing binding affinity (Fluidity One-W), α-syn monomer; conditions: 60 μM labeled p216, 0–400 μM α-syn monomer, MilliQ water, 15 min in the dark; 1:1 binding fit of Rh; read-out: Dissociation binding constant (Kd) for α-syn
T3 construct: made in house; host or cells: Escherichia coli BL21 (DE3), plasmid pET11-D
Procedure: as §1, §2, §3

[4] = vesicles formed by DOPG and other negatively charged lipids; cited from earlier work
Procedure: Penetratin forms β-structures on vesicles formed by DOPG and other negatively charged lipids (at concentrations >10^−3 mg/ml), leading to membrane perturbation ...

α-syn [5] = conditions: cited from earlier work
Description: Cell-penetrating peptides (CPPs) ([57]) are defined as a short relatively nontoxic and partly hydrophobic and/or polybasic peptides ([…] 5–35 amino acid residues), with a net positive charge at physiological pH. CPPs have the ability of interacting with negatively charged groups on the cellular membrane, which results in their internalization ([58], [59]) but can also cotransport a variety of cargoes inside the cells ([58], [60], [61], [62]). Cationic CPPs are able to translocate across membranes in a nonendocytotic fashion, generally by one of following mechanisms: the inverted micelle mo ...

| Compound | Kd (αSO) | Reduction of αSO-induced membrane permeability (αSOs; calcein-filled DOPG LUVs, peptide concentration not stated at the place) | Reduction of αSOs-induced large anionic unilamellar vesicle membrane permeability (αSOs; peptide at 10^−1 to 10^−3 mg/ml) | Increase of cell viability compared with αSOs alone (SH-SY5Y cells [1]) | Cell viability (MTT) (SH-SY5Y cells [2]; SH-SY5Y cells, 35 μg/ml peptide alone, 24 h) | Toxicity to SH-SY5Y cells, in words (SH-SY5Y cells [2]; peptide alone, MTT) | Kd (α-syn [3]) | Concentration at which β-structures form on vesicles, leading to membrane perturbation and permeabilization [4] | Effect on fibrillation of α-syn (α-syn [5]) |
| --- | --- | --- | --- | --- | --- | --- | --- | --- | --- |
| CSCC[C@H](NC(=O)[C@H](CCCNC(=N)N)NC(=O)[C@H](CCCNC(=N)N)NC(=O)[C@H](CC(N)=O)NC(=O)[C@H](CCC(N)=O)NC(=O)[C@H](Cc1ccccc1)NC(=O)[C@@H](N)Cc1c[nH]c2ccccc12)C(=O)N[C@@H](CCCCN)C(=O)N[C@@H](Cc1c[nH]c2ccccc12)C(=O)N[C@@H](CCCCN)C(=O)N[C@@H](CCCCN)C(=O)O [p216] (H-WFQNRRMKWKK-OH) | 2.7 µM | 100% | ~100% | about 20% | 92% | not toxic | 31.2 µM |  |  |
| RQIKIWFQNRRMKWKK [Penetratin, cell-penetrating peptide from the third helix of the Antennapedia protein homeodomain] |  |  |  |  |  |  |  | > 10^−3 mg/ml | inhibit fibrillation of α-syn |

Reference: PMC9791135, “A penetratin-derived peptide reduces the membrane permeabilization and cell toxicity of α-synuclein oligomers” (The Journal of Biological Chemistry, 2022)
